Where two headings read alike, the source gives them in different places. A value given as a limit tells only on which side of the number the result lay.

Common to all, as to assay type: cell-based, human
For experiment [1], the system named is A549 cells (Kras G12S mutation). Kind of experiment: Cell proliferation inhibition experiment, 3D model, CellTiter-Glo (A549). The settings on record: A549, 3D sphere plate, 5 days, 2% FBS. As to the method: (§1) NCI-H358 was a human non-small cell lung cancer cell line with Kras G12C mutation, cultured in 10% FBS RPMI-1640 medium; A549 was a human lung adenocarcinoma cell line with Kras G12S mutation, cultured in 10% FBS F-12K medium. The cells in the logarithmic growth phase was taken, digested with trypsin EDTA, collected and counted, and H358 was adjusted to 1.8E4 cells/ml using 2% FBS RPMI-1640 medium, and A549 was adjusted to 8.9E3 cells/ml using 2% FBS F-12K medium; 800 (45 μl) H358 or 400 (45 μl) A549 cells were seeded in a 384-well sphere plate respectively, cultured overnight to establish a 3D cell model. DMSO was used to prepare 1000× compound 3.16-fold gradient concentration stock solution, and 2% FBS medium was used to dilute 100-fold to 10× compound stock solution. On the second day after cell seeding, 5 μl 10× compound stock solution was added to each cell culture well, the final concentration was 1×, and DMSO content was 0.1%. DMSO was used as the experimental control (control) and 2% FBS medium as the blank control (blank). After the compound and cells were added and cultured for 5 days, 25 μl CellTiter-Glo working solution was added to each well, mixed at 400 rpm and incubated for 30 minutes. After 30 minutes at room temperature, 40 μl of the mixture was transferred to a 384-well plate with a non-transparent white bottom, the luminescence chemiluminescence value was read, and the cells proliferation inhibition rate IR (%)=(RLU control-RLU compound)/(RLU control-RLU blank)×100% was calculated, Prism 6 four-parameter method was used to fit the compound's gradient dilution concentration and the corresponding cell proliferation inhibition rate, and the IC50 value was calculate.

Experiment [2] concerns NCI-H358 cells (Kras G12C mutation). Kind of experiment: Cell proliferation inhibition experiment, 3D model, CellTiter-Glo (NCI-H358). The settings on record: NCI-H358, 3D sphere plate, 5 days, 2% FBS. As to the method:
as §1
For orientation: Cellular ATP, detected with luciferase, serves as a proxy for viable cell number.

In experiment [3] the test system is MIA PaCa-2 cells (Kras G12C mutation). Kind of experiment: Cell proliferation inhibition experiment, 3D model, CellTiter-Glo (MIA PaCa-2). Conditions: MIA PaCa-2, 3D sphere plate, 5 days, read-out: MIA-PaCa2 IC50. As to the method:
MIA PaCa2 was a human pancreatic cancer cell line with Kras G12C mutation, cultured in 10% FBS+2.5% Horse serum DMEM medium; A549 was a human lung adenocarcinoma cell line with Kras G12S mutation, cultured in 10% FBS F-12K medium. The cells in the logarithmic growth phase were taken, digested with enzyme EDTA, collected, counted and 200 MIA PaCa-2 or 400 A549 cells were seeded in a 384-well sphere plate respectively, cultured overnight to establish a 3D cell model. DMSO was used to prepare 1000× compound 3.16-fold gradient concentration stock solution, and medium was used to dilute 100-fold to 10× compound stock solution. On the second day after cell seeding, 10× compound stock solution was added to each cell culture well, the final concentration was 1×, and DMSO content was 0.1%. DMSO was used as an experimental control (control), medium as the blank control (blank). After the compound and cells were added and cultured for 5 days, 30 μl CellTiter-Glo working solution was added to each well, mixed and incubated for 30 minutes. After 30 minutes at room temperature, 40 μl of the mixture was transferred to a 384-well plate with a non-transparent white bottom, the luminescence chemiluminescence value was read, and the cells proliferation inhibition rate IR (%)=(RLU control-RLU compound)/(RLU control-RLU blank)×100% was calculated, XLFit four-parameter method was used to fit the compound's gradient dilution concentration and the corresponding cell proliferation inhibition rate, and the IC50 value was calculate.

Where [4] appears, read: Homo sapiens, MIA PaCa-2, 120 h.

For the compound `C=CC(=O)N1CCN2c3nc(=O)n(-c4c(C(C)C)ncnc4C(C)C)c4nc(-c5c(O)cccc5F)c(F)c(c34)OC[C@H]2C1` [Compound Z98], the IC50 (usually the point on the concentration scale where inhibition reaches its midpoint) in experiment [1] (Homo sapiens, A549, 120 h) is over 10000 nM; in experiment [2] (Homo sapiens, NCI-H358, 120 h), 1 nM; in experiment [3] (setting [4]), 2 nM.

`C=CC(=O)N1CCN2c3nc(=O)n(-c4c(C)ccnc4C(C)C)c4cc(-c5c(O)cccc5F)c(Cl)c(c34)OC[C@H]2C1` (single isomer, unassigned) [Compound Z29-1]: the 50% inhibitory concentration (IC50) was over 10000 nM in experiment [1], 3 nM in experiment [2] and 8 nM in experiment [3].

Take `C=CC(=O)N1CCN2c3nc(=O)n(-c4c(C)ccnc4C(C)C)c4nc(-c5c(O)cccc5F)cc(c34)OC[C@@H]2C1` (single isomer, unassigned) [Compound Z36-2]: the IC50 in experiment [1] (Homo sapiens, A549, 120 h) amounted to 14400 nM; in experiment [2] (Homo sapiens, NCI-H358, 120 h), 68 nM; in experiment [3] (setting [4]), 121 nM.

In the case of `C=CC(=O)N1CCN2c3nc(=O)n(-c4c(C)ccnc4C(C)C)c4nc(-c5c(F)ccc(Cl)c5O)c(Cl)c(c34)OC[C@@H]2C1` [Compound Z52, (5 aS)-7-acryloyl-3-chloro-2-(3-chloro-6-fluoro-2-hydroxyphenyl)-12-(2-isopropyl-4-methylpyridin-3-yl)-5,5a,6,7,8,9-hexahydro-4-oxo-1,7,9a,10,12-pentazabenzo[4,5]cyclohepta[1,2,3-de]naphthalen-11 (12H)-one], the half-inhibitory concentration (IC50) in experiment [1] (Homo sapiens, A549, 120 h) was over 10000 nM; in experiment [2] (Homo sapiens, NCI-H358, 120 h), 4 nM; in experiment [3] (setting [4]), 23 nM.

Take `C=CC(=O)N1CCN2c3nc(=O)n(-c4c(C)ccnc4C(C)C)c4cc(-c5c(O)cccc5F)cc(c34)OC[C@@H]2C1` (atropisomer, axis not shown) [Compound Z15-2]: the values for the IC50 in experiment [1], in experiment [2] and in experiment [3] were 29800 nM, 149 nM and 261 nM, respectively.

Take `C=CC(=O)N1CCN2c3nc(=O)n(-c4ccccc4C(C)C)c4cc(-c5c(C)ccc6[nH]ncc56)c(Cl)c(c34)OC[C@@H]2C1` (single isomer, unassigned) [Compound Z20-2]: the IC50 was 5950 nM in experiment [1], 46 nM in experiment [2] and 173 nM in experiment [3].

As for `C=CC(=O)N1CCN2c3nc(=O)n(-c4c(C)ncnc4C(C)C)c4nc(-c5c(O)cccc5F)c(F)c(c34)OC[C@H]2C1` (single isomer, unassigned) [Compound Z101-2], the concentration for half-maximal inhibition (IC50) was over 10000 nM in experiment [1], 3 nM in experiment [2] and 3 nM in experiment [3].

Take `C=CC(=O)N1CCN2c3nc(=O)n(-c4c(C)ccnc4C(C)C)c4cc(-c5c(C)ccc6[nH]ncc56)c(Cl)c(c34)OC[C@H]2C1` (atropisomer, axis not shown) [Compound Z30-2-2]: the results for the concentration for half-maximal inhibition (IC50) in experiment [1], in experiment [2] and in experiment [3] were over 10000 nM, 3 nM and 4 nM, respectively.

As to `C=CC(=O)N1CCN2c3nc(=O)n(-c4c(C)ccnc4C(C)C)c4cc(-c5c(O)cccc5F)c(Cl)c(c34)OC[C@H]2C1` (single isomer, unassigned) [Compound Z29-4], the figures for the IC50 in experiment [1], in experiment [2] and in experiment [3] were over 10000 nM, 44 nM and 358 nM, respectively.

In the case of `C=CC(=O)N1CCN2c3nc(=O)n(-c4c(C)ccnc4C(C)C)c4cc(-c5c(O)cccc5F)c(Cl)c(c34)OC[C@H]2C1` [Compound Z29], the IC50 in experiment [1] (Homo sapiens, A549, 120 h) was 12600 nM; in experiment [2], 7 nM; in experiment [3], 14 nM.

Take `C=CC(=O)N1CCN2c3nc(=O)n(-c4ccccc4C(C)C)c4cc(-c5c(C)ccc6[nH]ncc56)c(Cl)c(c34)OC[C@@H]2C1` (single isomer, unassigned) [Compound Z20-4]: the 50% inhibitory concentration (IC50) in experiment [1] was found to be 2670 nM; in experiment [2], 26 nM; in experiment [3], 51 nM.

Take `C=CC(=O)N1CCN2c3nc(=O)n(-c4c(C)ncnc4C4CC4)c4nc(-c5cccc(F)c5F)c(Cl)c(c34)OC[C@H]2C1` [Compound Z106]: the concentration for half-maximal inhibition (IC50) in experiment [1] (Homo sapiens, A549, 120 h) is over 30000 nM; in experiment [2] (Homo sapiens, NCI-H358, 120 h), 4 nM; in experiment [3] (setting [4]), 7 nM.

With `C=CC(=O)N1CCN2c3nc(=O)n(C4CC4)c4cc(-c5c(C)ccc6[nH]ncc56)c(Cl)c(c34)OC[C@@H]2C1` (single isomer, unassigned) [Compound Z17-2], the IC50 in experiment [1] (Homo sapiens, A549, 120 h) was determined as 12800 nM; in experiment [2] (Homo sapiens, NCI-H358, 120 h), 37 nM; in experiment [3] (setting [4]), 33 nM.

Consider `C=CC(=O)N1CCN2c3nc(=O)n(-c4c(C)ccnc4C(C)C)c4nc(-c5cccc(F)c5F)c(Cl)c(c34)OC[C@@H]2C1` [Compound Z47], for which the IC50 in experiment [1] (Homo sapiens, A549, 120 h) was over 10000 nM; in experiment [2] it was 3 nM; in experiment [3], 9 nM.

With `C=CC(=O)N1CCN2c3nc(=O)n(-c4c(C)ccnc4C(C)C)c4cc(-c5cccnc5N)c(Cl)c(c34)OC[C@H]2C1` [Compound Z41], the concentration for half-maximal inhibition (IC50) in experiment [1] (Homo sapiens, A549, 120 h) was over 10000 nM; in experiment [2] (Homo sapiens, NCI-H358, 120 h) it was 318 nM; in experiment [3] (setting [4]), 344 nM.

`C=CC(=O)N1CCN2c3nc(=O)n(-c4c(C)ncnc4C(C)C)c4nc(-c5c(O)cccc5F)c(F)c(c34)OC[C@H]2C1` (single isomer, unassigned) [Compound Z101-1]: the IC50 in experiment [1] (Homo sapiens, A549, 120 h) was over 10000 nM; in experiment [2], 42 nM; in experiment [3], 56 nM.

In the case of `C=CC(=O)N1CCN2c3nc(=O)n(-c4c(C)ccnc4C4CC4)c4nc(-c5ccccc5F)c(Cl)c(c34)OC[C@H]2C1` (single isomer, unassigned) [Compound Z102-2], the half-maximal inhibitory concentration (IC50) turned out to be 12200 nM in experiment [1], 27 nM in experiment [2] and 83 nM in experiment [3].

For the compound `C=CC(=O)N1CCN2c3nc(=O)n(-c4ccccc4C(C)C)c4cc(-c5c(C)ccc6[nH]ncc56)c(Cl)c(c34)OC[C@@H]2C1` (single isomer, unassigned) [Compound Z20-1], the half-inhibitory concentration (IC50) was found to be 12200 nM in experiment [1], 10 nM in experiment [2] and 17 nM in experiment [3].

As to `C=CC(=O)N1CCN2c3nc(=O)n(-c4c(C)ccnc4C(C)C)c4cc(-c5c(C)ccc6[nH]ncc56)cc(c34)OC[C@@H]2C1` (single isomer, unassigned) [Compound Z19-2], the 50% inhibitory concentration (IC50) in experiment [1] is 12000 nM; in experiment [2] it was 25 nM; in experiment [3] (setting [4]) it was 24 nM.

As for `C=CC(=O)N1CCN2c3nc(=O)n(-c4c(C)ccnc4C(C)C)c4cc(-c5c(C)ccc6[nH]ncc56)c(Cl)c(c34)OC[C@H]2C1` (single isomer, unassigned) [Compound Z30-1], the values for the IC50 in experiment [1], in experiment [2] and in experiment [3] were 25000 nM, 65 nM and 78 nM, respectively.

In the case of `C=CC(=O)N1CCN2c3nc(=O)n(-c4c(C)ccnc4C(C)C)c4nc(-c5ccccc5OC(F)(F)F)c(Cl)c(c34)OC[C@@H]2C1` [Compound Z64], the 50% inhibitory concentration (IC50) in experiment [1] (Homo sapiens, A549, 120 h) was over 10000 nM; in experiment [2] (Homo sapiens, NCI-H358, 120 h), 7 nM; in experiment [3] (setting [4]), 9 nM.

The record behind these values is patent publication US20220251109A1, “OXAAZAQUINAZOLINE-7(8H)-KETONE COMPOUND, PREPARATION METHOD THEREFOR AND PHARMACEUTICAL APPLICATION THEREOF” (GENFLEET THERAPEUTICS (SHANGHAI) INC., priority 2019, published 2022).
